Data reported in US9533999B2, “Fused thiazin-3-ones as KCA3.1 inhibitors” (Boehringer Ingelheim International GmbH, priority 2012, dated 2017).

system: aortas of ApoE−/− mice; assay: not given; details: cited from earlier work

In the case of `Clc1ccccc1C(c1ccccc1)(c1ccccc1)n1cccn1` [TRAM-34], the development of atherosclerosis is listed as “significantly reduces the development of atherosclerosis”.
For `Clc1ccccc1C(c1ccccc1)(c1ccccc1)n1ccnc1` [clotrimazole], the development of atherosclerosis is listed as “significantly reduces the development of atherosclerosis”.

system: C57BL/6 mice; assay: not given; details: MOG35-55 peptide induced; cited from earlier work

In the case of `Clc1ccccc1C(c1ccccc1)(c1ccccc1)n1cccn1` [TRAM-34], the “inhibition in EAE model” value is listed as “inhibits”.

target: human KCa3.1 (Homo sapiens (Human), UniProt O15554); assay: KCa3.1 Assay (FLIPR thallium influx); assay type: cell-based; details: HEK293 cells over-expressing human KCa3.1; Tl+ influx, FLIPR dye; 15 min compound treatment
Experimental: HEK293 cells over-expressing human KCa3.1 are used to measure the effects of compounds in inhibiting the KCa3.1 channel function. The assay is based on measuring the influx of Tl^+ through KCa3.1 using a FLIPR dye assay (FLIPR Potassium Ion Channel Assay Kit #R8154 by Molecular Devices). The day before the assay HEK293/KCa3.1 cells are seeded on a 384 well plate. On the day of the assay, media is removed and replaced with Molecular Devices Potassium Ion Channel dye then incubated for 1 hour according to manufacturer's recommendations. The cells are then treated with compounds or DMSO control for 15 min, followed by addition of thallium (final concentration=1.5 mM) and ionomycin (final concentration=1 uM). The plate is read on HAMAMATSU […] measuring fluorescence signal for 50 seconds using (Em: 565-625 nm). Data analysis: HAMAMATSU 6000 data are exported using max-min value for frame 10 and 40 and corrected by spatial uniformity correction. Percent of control (POC) is calculated as 100×(max-minFlsample−max-minFllow)/(max-minFlhi−max-minFllow). Max-min Flsample is max-min value of each sample well containing test compound. Max-min Fllow is average max-min value of wells containing reference inhibitory compound. Max-min Flhi is average max-min value of wells containing DMSO. IC50 values are determined by nonlinear curve fitting of the data from a duplicate 11-point concentration-response curve.

Compared with `NC(=O)c1ccc2c(n1)N(Cc1ccc(Cl)c(C(F)(F)F)c1)C(=O)CS2` [II-3], `O=C1CSc2ccc(CO)nc2N1Cc1ccc(Cl)c(C(F)(F)F)c1` [II-11] is 2.7-fold lower in IC50: 0.18 µM for the first, 0.066 µM for the second. The second is the more potent here.

`O=C1CS(=O)(=O)c2cccnc2N1CCc1cccc(C(F)(F)F)c1` [Compound I-7] and `O=C1CS(=O)(=O)c2cccnc2N1Cc1cccc(C(F)(F)F)c1` [Compound I-1] are within 1.5-fold of each other in IC50: 0.35 µM for the first, 0.29 µM for the second.

First: Cc1nc2c(s1)N(Cc1cccc(OC(F)(F)F)c1)C(=O)CS2 [II-12]
Second: Cc1nc2c(s1)N(Cc1cccc(C(F)(F)F)c1)C(=O)CS2 [II-15]
The IC50 of the first is 1.9-fold lower: 0.26 µM for the first, 0.49 µM for the second.

First: Cc1nc2c(s1)N(Cc1cccc(C(F)(F)F)c1)C(=O)CS2(=O)=O [Compound I-28]
Second: Cc1nc2c(s1)N(Cc1cccc(OC(F)(F)F)c1)C(=O)CS2(=O)=O [Compound I-29]
The IC50 of the first is 1.7-fold higher: 4 µM for the first, 2.4 µM for the second. The second is the more potent here.

Compared with `CC(C)c1nc2c(s1)S(=O)(=O)CC(=O)N2Cc1ccc(F)c(OC(F)(F)F)c1` [Compound I-34], `CC(C)c1nc2c(s1)S(=O)(=O)CC(=O)N2Cc1cccc(OC(F)(F)F)c1` [Compound I-36] is 4-fold higher in IC50: 0.096 µM for the first, 0.38 µM for the second. The first is the more potent here.

Going from `O=C1CS(=O)(=O)c2cccnc2N1Cc1ccc(Cl)c(C(F)(F)F)c1` [Compound I-3] to `O=C1CS(=O)(=O)c2cccnc2N1Cc1ccc(Cl)c(OC(F)(F)F)c1` [Compound I-12], the IC50 falls from 0.18 µM to 0.077 µM (2.3-fold).

Going from `O=C1CSc2ncsc2N1Cc1ccc(F)c(OC(F)(F)F)c1` [II-17] to `O=C1CSc2ncsc2N1Cc1cccc(OC(F)(F)F)c1` [II-13], the IC50 rises from 0.06 µM to 0.16 µM (2.7-fold).

Compared with `O=C1CSc2cccnc2N1Cc1cccc(Br)c1` [II-10], `O=C1CSc2cccnc2N1Cc1cccc(OC(F)(F)F)c1` [II-1, 4-(3-trifluoromethoxy-benzyl)-4H-pyrido[3,2-b][1,4]thiazin-3-one] is 6-fold lower in IC50: 0.31 µM for the first, 0.052 µM for the second. The second is the more potent here.

First: CC(C)c1nc2c(s1)SCC(=O)N2C(C)c1cccc(C(F)(F)F)c1 (stereo not shown) [II-21]
Second: Cc1nc2c(s1)SCC(=O)N2C(C)c1cccc(C(F)(F)F)c1 (stereo not shown) [II-23]
The IC50 of the first is 6-fold higher: 0.4 µM for the first, 0.067 µM for the second.

Compared with `O=C1CS(=O)(=O)c2nc(C3CC3)sc2N1Cc1cccc(C(F)(F)F)c1` [Compound I-30], `O=C1CSc2nc(C3CC3)sc2N1Cc1cccc(C(F)(F)F)c1` [II-14] is 2.7-fold lower in IC50: 4.3 µM for the first, 1.6 µM for the second.

Going from `CC(c1cc(C(F)(F)F)ccn1)N1C(=O)CS(=O)(=O)c2cccnc21` (stereo not shown) [Compound I-8] to `CC(c1cccc(C(F)(F)F)c1)N1C(=O)CS(=O)(=O)c2cccnc21` (stereo not shown) [Compound I-2], the IC50 falls from 1.9 µM to 0.12 µM (16-fold). The second is the more potent here.

First: CC(c1cccc(C(F)(F)F)c1)N1C(=O)CS(=O)(=O)c2ccsc21 (stereo not shown) [Compound I-38]
Second: CC(c1cccc(C(F)(F)F)c1)N1C(=O)CS(=O)(=O)c2ncsc21 (stereo not shown) [Compound I-32]
The IC50 of the first is 14-fold lower: 0.071 µM for the first, 1 µM for the second. The first is the more potent here.

First: O=C1CS(=O)(=O)c2ncsc2N1Cc1ccc(F)c(OC(F)(F)F)c1 [Compound I-26]
Second: O=C1CS(=O)(=O)c2scnc2N1Cc1ccc(F)c(OC(F)(F)F)c1 [Compound I-33]
The IC50 of the first is 4.6-fold higher: 0.51 µM for the first, 0.11 µM for the second.

Compared with `CC(c1cc(C(F)(F)F)nn1C)N1C(=O)CSc2cccnc21` (stereo not shown) [II-6], `CC(c1cccc(C(F)(F)F)c1)N1C(=O)CSc2cccnc21` (stereo not shown) [II-4] is 88-fold lower in IC50: 3.6 µM for the first, 0.041 µM for the second.

Compared with `O=C1CS(=O)(=O)c2ncsc2N1Cc1cccc(C(F)(F)F)c1` [Compound I-25, 4,4-dioxo-7-(3-trifluoromethyl-benzyl)-4,7-dihydro-5H-41ambda*6*-thiazolo[4,5-b][1,4]thiazin-6-one], `O=C1CS(=O)(=O)c2ncsc2N1Cc1cccc(OC(F)(F)F)c1` [Compound I-31] is 1.7-fold lower in IC50: 3.7 µM for the first, 2.2 µM for the second.

Going from `O=C1CS(=O)(=O)c2nccnc2N1Cc1cccc(C(F)(F)F)c1` [Compound I-24] to `C[C@@H](c1cccc(C(F)(F)F)c1)N1C(=O)CS(=O)(=O)c2nccnc21` [Compound I-22, 1,1-dioxo-4-[(S)-1-(3-trifluoromethyl-phenyl)-ethyl]-1,4-dihydro-2H-11ambda*6*-pyrazino[2,3-b][1,4]thiazin-3-one], the IC50 falls from 2.6 µM to 1.1 µM (2.4-fold).

Compared with `O=C1CS(=O)(=O)c2nccnc2N1Cc1ccc(F)c(OC(F)(F)F)c1` [Compound I-23], `O=C1CS(=O)(=O)c2cccnc2N1Cc1ccc(F)c(OC(F)(F)F)c1` [Compound I-5] is 3.5-fold lower in IC50: 0.17 µM for the first, 0.049 µM for the second. The second is the more potent here.

`O=C1CS(=O)(=O)c2sccc2N1Cc1ccc(F)c(OC(F)(F)F)c1` [Compound I-40] and `O=C1CS(=O)(=O)c2ccsc2N1Cc1ccc(F)c(OC(F)(F)F)c1` [Compound I-39] are within 1.5-fold of each other in IC50: 0.048 µM for the first, 0.039 µM for the second.

`O=C1CSc2cc(Cl)cnc2N1Cc1ccc(F)c(OC(F)(F)F)c1` [II-9] and `O=C1CS(=O)(=O)c2cc(Cl)cnc2N1Cc1ccc(F)c(OC(F)(F)F)c1` [Compound I-15] are within 1.5-fold of each other in IC50: 0.13 µM for the first, 0.092 µM for the second.

`CC(c1ccc(Cl)c(C(F)(F)F)c1)N1C(=O)CS(=O)(=O)c2cccnc21` (stereo not shown) [Compound I-4] and `CC(c1cccc(C(F)(F)F)c1)N1C(=O)CS(=O)(=O)c2cc(Cl)cnc21` (stereo not shown) [Compound I-9] are within 1.5-fold of each other in IC50: 0.14 µM for the first, 0.11 µM for the second.

First: Cc1nc2c(s1)N(Cc1ccc(F)c(OC(F)(F)F)c1)C(=O)CS2(=O)=O [Compound I-27]
Second: COC(=O)c1ccc2c(n1)N(Cc1ccc(F)c(OC(F)(F)F)c1)C(=O)CS2(=O)=O [Compound I-18]
The IC50 of the first is 3.5-fold higher: 0.31 µM for the first, 0.088 µM for the second. The second is the more potent here.

Compared with `CC(c1cccc(C(F)(F)F)c1)N1C(=O)CS(=O)(=O)c2ncc(Br)cc21` (stereo not shown) [Compound I-21], `COC(=O)c1cc2c(s1)S(=O)(=O)CC(=O)N2C(C)c1cccc(C(F)(F)F)c1` (stereo not shown) [Compound I-43] is 2-fold lower in IC50: 0.24 µM for the first, 0.12 µM for the second. The second is the more potent here.

First: NC(=O)c1ccc2c(n1)N(Cc1ccc(Cl)c(C(F)(F)F)c1)C(=O)CS2(=O)=O [Compound I-20]
Second: O=C1CS(=O)(=O)c2cc(Cl)cnc2N1Cc1ccc(Cl)c(C(F)(F)F)c1 [Compound I-10]
The IC50 of the first is 2.7-fold higher: 0.49 µM for the first, 0.18 µM for the second.

Going from `CC(c1cccc(C(F)(F)F)c1)N1C(=O)CSc2ncsc21` (stereo not shown) [II-16] to `O=C1CSc2ncsc2N1Cc1cccc(C(F)(F)F)c1` [II-2, 7-(3-trifluoromethyl-benzyl)-7H-thiazolo[4,5-b][1,4]thiazin-6-one], the IC50 rises from 0.17 µM to 0.32 µM (1.9-fold).

`O=C1CSc2cccnc2N1Cc1ccc(Cl)c(C(F)(F)F)c1` [II-5] and `O=C1CSc2cccnc2N1Cc1ccc(Cl)c(SC(F)(F)F)c1` [II-7] are within 1.5-fold of each other in IC50: 0.046 µM for the first, 0.052 µM for the second.

`COC(=O)c1cc2c(s1)S(=O)(=O)CC(=O)N2Cc1cccc(C(F)(F)F)c1` [Compound I-41] and `COC(=O)c1cc2c(s1)S(=O)(=O)CC(=O)N2Cc1cccc(OC(F)(F)F)c1` [Compound I-42] are within 1.5-fold of each other in IC50: 0.19 µM for the first, 0.15 µM for the second.

Going from `O=C1CS(=O)(=O)c2cccnc2N1CCc1cccc(Cl)c1` [Compound I-16] to `O=C1CS(=O)(=O)c2cccnc2N1CCc1ccccc1C(F)(F)F` [Compound I-6], the IC50 rises from 2 µM to 5 µM (2.5-fold).

Going from `CC(c1cccc(C(F)(F)F)c1)N1C(=O)CS(=O)(=O)c2ccc(C(=O)N(C)C)nc21` (stereo not shown) [Compound I-19] to `CC(C)c1nc2c(s1)S(=O)(=O)CC(=O)N2Cc1cccc(C(F)(F)F)c1` [Compound I-35], the IC50 falls from 2.2 µM to 0.24 µM (9.2-fold).

Compared with `CC(C)c1nc2c(s1)SCC(=O)N2Cc1ccc(F)c(OC(F)(F)F)c1` [II-18], `CC(C)c1nc2c(s1)SCC(=O)N2Cc1cccc(OC(F)(F)F)c1` [II-20] is 2-fold higher in IC50: 0.25 µM for the first, 0.51 µM for the second.

Compared with `CC(C)c1nc2c(s1)SCC(=O)N2Cc1cccc(C(F)(F)F)c1` [II-19], `Cc1nc2c(s1)SCC(=O)N2Cc1cccc(C(F)(F)F)c1` [II-22] is 4.7-fold lower in IC50: 0.34 µM for the first, 0.073 µM for the second.

Going from `O=C1CSc2cccnc2N1Cc1ccc(Cl)c(S(=O)(=O)C(F)(F)F)c1` [II-8] to `O=C1CS(=O)(=O)c2cccnc2N1Cc1ccc(Cl)c(S(=O)(=O)C(F)(F)F)c1` [Compound I-13], the IC50 rises from 0.047 µM to 0.83 µM (18-fold).

For `Cc1nc2c(s1)S(=O)(=O)CC(=O)N2Cc1cccc(C(F)(F)F)c1` [Compound I-37], the IC50 was 0.23 µM.

system: mice; assay: not given; details: UUO-induced, treated mice; cited from earlier work

For `Clc1ccccc1C(c1ccccc1)(c1ccccc1)n1cccn1` [TRAM-34], the “progression of renal fibrosis” value is listed as “attenuated progression of renal fibrosis”.
